Read-outs that look alike come from different tables or passages of the source.
Legend:
[1] = tested on: HAS2 (hyaluronic acid synthase 2); test: UVB-induced senescence assay: HAS2 gene expression (qPCR); assay type: cell-based, human; settings: HDF, 2 cycles of UVB, compound day 1 to 7, Figure 2B; note: key: ↑: increase; ↓: decrease; hyphens that indicate no effect (-)
Procedure: (§1) In the second approach, we established a method for inducing senescence in these cells with 2 cycles of UVB irradiation 72h apart (Figure 2A). The use of UVA to induce senescence was discarded due to its considerably longer time requirement, being unsuitable to screen 30 compounds within a reasonable period. Cells were treated with these compounds throughout the duration of the assay and cellular senescence was monitored with two markers: accumulation of SA-β-galactosidase (SA-β-Gal) activity, and the decrease in expression of HAS2 (hyaluronic acid synthase 2), a previously reported marker of skin senescence.
(§2) Figure 2 (A) Schematic representation of the protocol for senescence induction using UVB irradiation. Cells were treated -/+ the compounds from day 1 to 7 after seeding, irradiated with UVB on days 2 and 5 and harvested for analysis on day 7. […] (C) Phase-contrast (left column) and bright field (right column) microscope images of SA-β-Gal staining showing non-irradiated cells, UVB-irradiated cells non-treated and treated with Gallic acid or Shikimic acid at the indicated concentrations. (D) Percentage of SA-β-Gal positive cells and (E) Relative HAS2 mRNA levels in non-irradiated cells, UVB-irradiated cells and UVB-irradiated cells treated with Gallic acid or Shikimic acid at the indicated concentrations. Student T-test, *p<0.05, **p<0.01, ***p<0.001.
RNA was extracted from cell pellets using the Total RNA Purification Kit (Norgen, Canada), according to the manufacturer’s protocol. Extracted RNA was quantified using a NanoDrop® ND-1000 UV-Vis Spectrophotometer (Thermo Fisher Scientific, USA) and 300 ng of RNA were retrotranscribed to cDNA using the PrimeScriptTM RT reagent kit (Takara Bio Inc., Japan). cDNA was diluted 1/10 in ultrapure water and qPCR mix was prepared by adding cDNA (12 ng), SYBR green supermix (Bio Rad, USA), forward and reverse primers (0.2μM). The primers and their respective sequences are listed in Supplementary Table 1. qPCR protocol included one step at 95° C for 30 s, 40 cycles at 95° C for 10s, and 60° C for 1min. The results were analyzed with Bio-Rad CFX Manager software. BACT was used as a housekeeping gene to normalize gene expression.
(§3) Senescence induction by UVB irradiation For the non-irradiation control conditions, HDF were […]
(§4) After 24h, culture medium was removed and well plates. After 24h, culture medium was removed replaced by fresh cell culture medium containing the and replaced with fresh cell culture medium containing compounds at different concentrations. After 24h, the compounds at different concentrations. […]
(§5) cell culture medium was removed, and cells were cells/plate in fresh cell culture medium containing the irradiated at 25 mJ/cm2 of UVB light (312 nm) in a Bio- compound in 6-well plates. After 3 days, cells were […]
(§6) amount of PBS. PBS was then removed and fresh cell fresh cell culture medium containing the compound in culture medium with the compound was added to each 6-well plates. After 2 days, cells were processed well. After 3 days, cells were irradiated again under the according to the qPCR, β-Gal staining, apoptosis, cell same conditions. After 2 days, cells were processed cycle or immunofluorescence protocols. according to the qPCR, β-Gal staining, apoptosis, cell cycle or immunofluorescence protocols.

[2] = tested on: UVB-irradiated human dermal fibroblasts (HDFs); test: UVB-induced senescence assay: SA-β-Gal staining; assay type: cell-based; settings: for β-Gal: HDF, 2 cycles of UVB, compound day 1 to 7, Figure 2B; for effect of sirtuin inhibitor on the protective effect of SA on senescence (SA-β-Gal and HAS2 expression) / SA-β-Gal accumulation/staining / prevention of UV-induced cellular senescence: UVB-irradiated HDF; for effect of sirtuin inhibitor on the protective effect of SA on senescence (SA-β-Gal and HAS2 expression): SA 10, 25, 50 mM plus EX-527 1 μM, AGK2 2 μM or OSS128167 200 μM; for prevention of UV-induced cellular senescence: SA-β-Gal and HAS2 markers; for β-Gal: key: ↑: increase; ↓: decrease; hyphens that indicate no effect (-)
Procedure: as §1, §2
(§7) The protocol for senescence induction using UVB irradiation is described in the Supplementary Methods. SA-β-Gal staining, WST-1, sulforhodamine B (SRB) and trypan blue assays were performed as previously described. For the siRNA experiments, the protocol for senescence induction using UVB irradiation was the same as in the Supplementary Methods. Specific siRNA (Horizon discovery, UK) for SIRT1, SIRT2, SIRT6, BiP or scramble siRNA were incubated for 6 hours before each irradiation step.
as §3, §4, §5, §6

[3] = tested on: H3K9ac (the target of SIRT1, SIRT2 and SIRT6); test: Sirtuin activity assay in HDF: H3K9ac levels (Western blot); assay type: cell-based, human; settings: HDF treated 24h; for SIRT1,2,6 H3K9ac: Figure 1B; for SIRT1,2,6 H3K9ac: key: ↑: increase; ↓: decrease; hyphens that indicate no effect (-)
Procedure: (§8) Figure 1 (A) Schematic representation of the compound testing for sirtuin activity evaluation in HDF. Cells were treated with or without the compounds for 24h and harvested for analysis. […] (C) Western Blot analysis and (D) quantification of H4K16ac and H3K9ac levels in cells treated with Resveratrol or Shikimic acid at the indicated concentrations. H4K16 and H3K9 levels were normalized to H4 and H3 levels respectively. Student T-test, *p<0.05, **p<0.01, ***p<0.001.
(§9) HDFs were plated in 100x20 mm2 cell culture plates and after 24h, fresh cell culture medium containing the compounds was added. After 24h, cells were detached with cell scrapers, harvested, and processed for qPCR or western blot.
(§10) Protein levels were analyzed as previously described. Cells were directly lysed in 1x Laemmli Buffer (Bio-Rad, USA), incubated at 95° C and centrifuged. Supernatant was subjected to SDS-polyacrylamide gel electrophoresis, and successive steps were performed as described. The list of antibodies used is included in Supplementary Table 2.

[4] = tested on: primary human dermal fibroblasts (HDFs)
Description: In our efforts to identify novel factors that could prevent skin cell senescence, we developed a screening process to identify new modulators of the protective role of sirtuins in UV-induced senescence. For this purpose, we established a culture of primary human dermal fibroblasts (HDFs). […] Our first step in the screening was to establish the optimal concentrations of these compounds in the case of HDFs. […] Once established, we took these parameters into account to decide the specific working range of concentrations for each compound.
Human dermal fibroblasts (HDFs) (Promocell, Germany) from 40-year old Caucasian women were used as the in vitro model for compound viability and efficacy screening. Cells were cultured in Dulbecco's modified eagle medium (DMEM) low glucose (Biowest, France) supplemented with 10% fetal bovine serum (FBS) (Capricorn Scientific, Germany) and 10 U/mL penicillin/streptomycin (Biowest, France) in a humidified incubator at 37° C and 5% CO2. For cell passage, cells at 80% confluence were trypsinized and plated at 60% confluence. Cells between passage 13 and 18 were used for the assays. For the SIRT1 in vitro assay, HEK293 cells (ATCC, USA), used to transfect and immunoprecipitate SIRT1 protein, were grown in DMEM high glucose (Thermo Fisher Scientific, USA), supplemented with 10% FBS in a humidified incubator at 37° C and 5% CO2. The following experiments were all performed in triplicate.
as §7

[5] = tested on: H4K16ac (the target of SIRT1 and SIRT2); test: Sirtuin activity assay in HDF: H4K16ac levels (Western blot); assay type: cell-based, human; settings: HDF treated 24h; for SIRT1,2 H4K16ac: Figure 1B; for SIRT1,2 H4K16ac: key: ↑: increase; ↓: decrease; hyphens that indicate no effect (-)
Procedure: as §8, §9, §10

[6] = HDFs, WST-1 cell viability test
[7] = HDFs, WST-1 cell viability test, maximum non-cytotoxic dose

Max. non-cyt. doses ([4]; female, human) [mM] | Compound | HAS2 expression [1] | β-Gal [2] | SIRT1,2,6 H3K9ac [3] | Max. non-cyt. doses [4] [mM] | LD50 [4, 6] [mM] | SIRT1,2 H4K16ac [5] | LD50 ([4]; female, human) [mM] | effect on H3K9ac levels [3] | effect of sirtuin inhibitor on the protective effect of SA on senescence (SA-β-Gal and HAS2 expression) [2] | Max. non-cyt. doses [4, 7] [mM] | SA-β-Gal accumulation/staining [2] | prevention of UV-induced cellular senescence [2] | effect on H4K16ac levels [5]
 | C/C=C/C(=O)C1=C(C)C=CCC1(C)C [Damascenone] | - | - | - | 0.05 | 0.121 | - |  |  |  |  |  |  | 
0.1 | O=C(O)c1cc(O)c(O)c(O)c1 [Gallic acid] |  | - | - |  |  | - | 0.179 |  |  |  |  |  | 
 | CC1=NCC[C@@H](C(=O)O)N1 [Ectoine] | - | - |  | 300 | 359.12 | - |  | reduced the levels of H3K9ac only |  |  |  |  | 
 | O=C(Nc1ccc(O)c(C(=O)O)c1)c1cccc(NC(=O)c2ccco2)c1 [OSS128167, reference compound] |  |  |  |  |  |  |  |  | produced no clear effect |  |  |  | 
 | O=C(O)c1ccccc1O [Salicylic acid, reference compound] | - | - | - |  |  | - |  |  |  | 1 |  |  | 
 | COc1cc(-c2coc3cc4c(c(OC)c3c2=O)OCO4)cc(OC)c1OC [Irisflorentin] |  | - | - |  | 0.049 | - |  |  |  | 0.01 |  |  | 
 | N#C/C(=C\c1ccc(-c2cc(Cl)ccc2Cl)o1)C(=O)Nc1cccc2ncccc12 [AGK2, reference compound] |  |  |  |  |  |  |  |  | produced no clear effect |  |  |  | 
 | C[C@@H]1O[C@@H](O[C@@H]2[C@@H](O)[C@H](OCCc3ccc(O)c(O)c3)O[C@H](CO)[C@H]2OC(=O)/C=C/c2ccc(O)c(O)c2)[C@H](O)[C@H](O)[C@H]1O [Verbascoside] |  | - | - |  | 0.122 | - |  |  |  | 0.05 | did not change the level of SA-β-Gal staining |  | 
50 | NC(=O)NC1NC(=O)NC1=O (centres unmarked) [Allantoin, reference compound] | - | - |  |  |  | - | 100 |  |  |  |  |  | 
100 | CC(C)(CO)[C@@H](O)C(=O)NCCCO [Dexpanthenol, reference compound] | - | - |  |  |  |  | 262.48 | induced a similar effect on both targets |  |  |  | did not prevent cellular senescence | induced a similar effect on both targets
0.01 | COC1=C(OC)C(=O)C(CCCCCCCCCCO)=C(C)C1=O [Idebenone, reference compound] | - | - | - |  |  |  | 0.021 |  |  |  |  |  | 
 | NCCC(=O)N[C@@H](Cc1cnc[nH]1)C(=O)O [Carnosine] |  | - | - |  | 85.46 | - |  |  |  | 25 | did not change the level of SA-β-Gal staining |  | 
 | O=Cc1ccc(O)c(O)c1 [3,4-dihydroxybenzaldehyde] |  |  |  |  | 1.08 |  |  | induced a similar effect on both targets |  | 0.1 |  | did not prevent cellular senescence | induced a similar effect on both targets
 | COc1cc(/C=C/C(=O)O)ccc1O [Ferulic acid] |  | - | - | 7.5 | 16.5 | - |  |  |  |  | did not change the level of SA-β-Gal staining |  | 
0.05 | O=C(CCc1ccc(O)cc1)c1c(O)cc(O)cc1O [Phloretin] |  | - | - |  |  |  | 0.166 |  |  |  |  |  | had an effect solely on H4K16ac
 | C=C[C@](C)(O)CC[C@@H]1[C@@]2(C)CCCC(C)(C)[C@@H]2CC[C@@]1(C)O [Sclareol] | - | - | - |  | 0.04 |  |  |  |  | 0.02 |  |  | 
 | O=C(O)CCCC[C@@H]1CCSS1 (racemic) [Lipoic acid] |  | - | - | 1 |  | - |  |  |  |  | did not change the level of SA-β-Gal staining |  | 
150 | NCCS(=O)(=O)O [Taurine] |  | - | - |  |  | - | 396.58 |  |  |  | did not change the level of SA-β-Gal staining |  | 

Compound | Max. non-cyt. doses ([4]; female, human) [mM] | HAS2 expression [1] | β-Gal [2] | SIRT1,2,6 H3K9ac [3] | Max. non-cyt. doses [4] [mM] | LD50 [4, 6] [mM] | SIRT1,2 H4K16ac [5] | LD50 ([4]; female, human) [mM] | effect on H3K9ac levels [3] | effect of sirtuin inhibitor on the protective effect of SA on senescence (SA-β-Gal and HAS2 expression) [2] | Max. non-cyt. doses [4, 7] [mM] | SA-β-Gal accumulation/staining [2] | prevention of UV-induced cellular senescence [2] | effect on H4K16ac levels [5]
c1coc(CNc2ncnc3[nH]cnc23)c1 [Kinetin] | 0.5 | - | - |  |  |  | - | 1.835 | reduced the levels of H3K9ac only |  |  |  |  | 
COc1cc(C(=O)O)cc(OC)c1O [Syringic acid] | 1 | - | - | - |  |  | - | 3.65 |  |  |  |  |  | 
C=C[C@@H]1C2=CCOC(=O)C2=CO[C@H]1O[C@@H]1O[C@H](CO)[C@@H](O)[C@H](O)[C@H]1O [Gentiopicrin] | 2.5 | - | - | - |  | 13.825 |  |  |  |  |  |  |  | 

Reference: publication PMC8148468, “Shikimic acid protects skin cells from UV-induced senescence through activation of the NAD+-dependent deacetylase SIRT1” (Aging (Albany NY), 2021)
